Measured values reported in patent US7807704B2, “Bicyclic, nitrogen-containing compounds modulating CXCR4 and/or CCXCKR2” (Chemocentryx, Inc., priority 2006, dated 2010).

What was measured:
[1] = target: T1, CCXCKR2 (CXCR7) (Homo sapiens, UniProt P25106); test: displacement of 125I SDF-1 from CCXCKR2 (CXCR7) on MCF-7 and/or MDA-MB-435S cells; type: binding; conditions: second activity listed in the cell; read-out: CXCR7 activity (IC50 class)
T1 construct: expressed in transfected cells; host or cells: MDA-MB-435S transfected with pcDNA3.1(+)-hRDC1, and/or MCF-7 (endogenous receptor)
Description: The ability of the compounds to displace the labeled chemokine from the CCXCKR2 receptor sites at multiple concentrations was then determined with the screening process.
Reagents and Cells. ^125I-labeled SDF-1 was purchased from Perkin-Elmer Life Sciences, Inc. (Boston, Mass.). The MCF-7 (adenocarcinoma; mammary gland) cell line was obtained from the American Type Culture Collection (Manassas, Va.) or and was cultured in DMEM (Mediatech, Herndon, Va.) supplemented with 10% fetal bovine serum (FBS) (HyClone Logan, Utah) and bovine insulin (0.01 mg/mL) (Sigma, St. Louis, Mo.) at 37° C. in a humidified incubator at a 5% CO2/air mixture. CCXCKR2 transfected MDA-MB-435S were produced as described below. MDA-MB-435S human breast cancer line, was purchased from ATCC, and cultured in DMEM/10% FBS medium. The complete coding sequence of the gene encoding CCXCKR2 (a.k.a. CXCR7, hRDC1), was isolated from MCF-7 cells using μMACs mRNA isolation kit (Miltenyi Biotec, Auburn, Calif.). DNA contamination was removed by DNase digestion via RNeasy columns (Qiagen, Inc., Valencia, Calif.) and cDNA was generated using GeneAmp RNA PCR Core Kit (Applied Biosystems, Foster City, Calif.). PCR of cDNA samples was performed using Taq PCR Master Mix kit (Qiagen, Inc.) and hRDC1 primers harboring 5′ and 3′ NotI sites (hRDC1F 5′ […]-3′ (SEQ ID NO:11, hRDC1R 5′-[…]-3′) Not I digested PCR product was ligated into Not I digested pcDNA3.1 (+)(Invitrogen, Carlsbad, Calif.) and screened for orientation and sequence confirmed. Plasmid DNA was then isolated from overnight bacterial cultures by Maxiprep (Qiagen, Inc.). Plasmid DNA (10 μg) was added to MDA-MB-435s cells and cells were electroporated (0.22 kV, 960 uF) via Gene Pulser (Biorad laboratories, Hercules, Calif.). 48 hr post-electroporation, cells were transferred to selection medium (1000 ug/ml G418).
Binding Analysis. Target compounds were tested to determine their ability to bind with CCXCKR2 sites on MCF-7 and/or MDA-MB-435S cells. Efficiency-maximized radioligand binding using filtration protocols as described in Dairaghi D J, et al., HHV8-encoded vMIP-I selectively engages chemokine receptor CCR5. Agonist and antagonist profiles of viral chemokines., J. Biol. Chem. 1999 Jul. 30; 274(31): 21569-74 and Gosling J, et al., Cutting edge: identification of a novel chemokine receptor that binds dendritic cell-and T cell-active chemokines including ELC, SLC, and TECK., J. Immunol. 2000 Mar. 15; 164(6):2851-6 was used.
In these assays, MCF-7 and/or MDA-MB-435S cells were interrogated with the target compounds and the ability of these compounds to displace ^125I radiolabeled SDF-1 was assessed using the protocol described in Dairaghi and Gosling. The target compounds were added to the plate to the indicated concentration and were then incubated with cells followed by the addition of radiolabeled chemokine (^125I SDF-1) for 3 hr at 4° C. in the following binding medium (25 mM HEPES, 140 mM NaCl, 1 mM CaCl2, 5 mM MgCl2 and 0.2% bovine serum albumin, adjusted to pH 7.1). All assays were then incubated for 3 hrs at 4° C. with gentle agitation. Following incubation in all binding assays, reactions were aspirated onto PEI-treated GF/B glass filters (Packard) using a cell harvester (Packard) and washed twice (25 mM HEPES, 500 mM NaCl, 1 mM CaCl2, 5 mM MgCl2, adjusted to pH 7.1). Scintillant (MicroScint 10, Packard) was added to the wells, and the filters were counted in a Packard Topcount scintillation counter. Data were analyzed and plotted using Prism (GraphPad Prism version 3.0a for Macintosh, GraphPad Software, www.graphpad.com).

[2] = target: T2, CXCR4 (Homo sapiens, UniProt P61073); test: chemotaxis assay or 125I SDF-1α binding assay for CXCR4; conditions: first or only activity listed, read-out: CXCR4 activity (IC50 class)
T2 construct: all endogenously expressing CXCR4; endogenous in cells; host or cells: CEM-Nkr, CCRF-CEM, Jurkat, Molt-4; IL-2 stimulated human lymphocytes
Description: CEM-Nkr, CCRF-CEM (ATCC #CCL-119), Jurkat (ATCC #TIB-152), Molt-4 (ATCC# CRL-1582), cell lines, all endogenously expressing CXCR4, were used in compound screening and subsequent assays. These cell lines were cultured as a suspension in RPMI-1640 medium supplemented with 2 mM L-glutamine, 1.5 g/L sodium bicarbonate, 4.5 g/L glucose, 10 mM HEPES, 1 mM sodium pyruvate, and 10% FBS. Cells were grown under 5% CO2/95% air, 100% humidity at 37° C. and subcultured twice weekly at 1:6 (cells were cultured at a density range of 1×10^5 to 2×10^6 cells/mL) and harvested at 1×10^6 cells/mL. • b) Isolated Human IL-2 Stimulated Lymphocytes
Cells were centrifuged and resuspended in assay buffer (20 mM HEPES pH 7.1, 140 mM NaCl, 1 mM CaCl2, 5 mM MgCl2, and with 0.2% bovine serum albumin) to a concentration of 4×10^6 cells/mL for cell lines. Binding assays were set up as follows. […] Then 0.1 mL of ^125I labeled SDF-1α (obtained from Perkin Elmer Life Sciences, Boston, Mass.) diluted in assay buffer to a final concentration of ˜50 pM, yielding ˜30,000 cpm per well, was added, the plates sealed and incubated for approximately 3 hours at 4° C. on a shaker platform. Reactions were aspirated onto GF/B glass filters pre-soaked in 0.3% polyethyleneimine (PEI) solution, on a vacuum cell harvester (Packard Instruments; Meriden, Conn.). Scintillation fluid (40 μl; Microscint 20, Packard Instruments) was added to each well, the plates were sealed and radioactivity measured in a Topcount scintillation counter (Packard Instruments). Control wells containing either diluent only (for total counts) or excess SDF1 a (1 μg/mL, for non-specific binding) were used to calculate the percent of total inhibition for compound. The computer program Prism from GraphPad, Inc. (San Diego, Calif.) was used to calculate IC50 values. IC50 values are those concentrations required to reduce the binding of radiolabeled SDF-1α to the receptor by 50%. (For further descriptions of ligand binding and other functional assays, see Dairaghi, et al., J. Biol. Chem. 274:21569-21574 (1999), Penfold, et al., Proc. Natl. Acad. Sci. USA. 96:9839-9844 (1999), and Dairaghi, et al., J. Biol. Chem. 272:28206-28209 (1997)).
Chemotaxis assays were performed using 5 μm pore polycarbonate, polyvinylpyrrolidone-coated filters in 96-well chemotaxis chambers (Neuroprobe; Gaithersburg, Md.) using chemotaxis buffer (Hank's balanced salt solution (HBSS) and 1% FBS). CXCR4 ligand (i.e., SDF1a, R&D Systems; Minneapolis, Minn.) are use to evaluate compound mediated inhibition of CXCR4 mediated migration. Other chemokines (i.e., TECK; R&D Systems; Minneapolis, Minn.) are used as specificity controls. The lower chamber was loaded with 29 μl of chemokine (i.e., 0.1 nM SDF1a); the top chamber contained 50,000 Jurkat cells or IL-2 lymphocytes in 20 μl. The chambers were incubated 2 hours at 37° C., and the number of cells in the lower chamber quantified either by direct cell counts in five high powered fields per well or by the CyQuant assay (Molecular Probes), a fluorescent dye method that measures nucleic acid content and microscopic observation.
To evaluate small organic molecules that prevent the CXCR4 from binding ligand, an assay was employed that detected radioactive ligand (i.e, SDF-1) binding to cells expressing CXCR4 on the cell surface (for example, CEM-Nkr cells). For compounds that inhibited binding, whether competitive or not, fewer radioactive counts are observed when compared to uninhibited controls.
Equal numbers of cells were added to each well in the plate. The cells were then incubated with radiolabeled […]. Unbound ligand was removed by washing the cells, and bound ligand was determined by quantifying radioactive counts. Cells that were incubated without any organic compound gave total counts; non-specific binding was determined by incubating the cells with unlabeled ligand and labeled ligand. Percent inhibition was determined by the equation: […]

T1 sequence (P25106 whole entry): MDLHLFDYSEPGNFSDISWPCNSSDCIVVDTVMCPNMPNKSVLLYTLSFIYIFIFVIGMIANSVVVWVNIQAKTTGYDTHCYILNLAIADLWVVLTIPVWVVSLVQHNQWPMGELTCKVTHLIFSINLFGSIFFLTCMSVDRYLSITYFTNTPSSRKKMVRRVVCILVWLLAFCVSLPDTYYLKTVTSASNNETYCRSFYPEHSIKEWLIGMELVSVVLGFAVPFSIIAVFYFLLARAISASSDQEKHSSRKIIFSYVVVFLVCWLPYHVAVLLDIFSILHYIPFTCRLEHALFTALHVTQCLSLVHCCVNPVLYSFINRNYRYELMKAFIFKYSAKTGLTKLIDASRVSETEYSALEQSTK
T2 sequence (P61073 whole entry): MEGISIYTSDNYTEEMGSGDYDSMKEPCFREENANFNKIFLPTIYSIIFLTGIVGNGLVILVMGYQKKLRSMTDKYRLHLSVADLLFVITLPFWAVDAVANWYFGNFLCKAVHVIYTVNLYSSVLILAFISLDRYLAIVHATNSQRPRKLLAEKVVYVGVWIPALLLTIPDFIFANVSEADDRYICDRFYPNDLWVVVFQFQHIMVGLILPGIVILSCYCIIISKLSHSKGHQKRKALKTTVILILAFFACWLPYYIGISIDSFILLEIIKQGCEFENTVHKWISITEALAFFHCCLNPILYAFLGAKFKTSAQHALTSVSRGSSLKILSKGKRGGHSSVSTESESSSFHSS

## CN(CCNC(=O)Cn1ccc2ccc(-c3ccc(Cl)c(Cl)c3)cc21)C1CCCCC1 [No 27]
[1]
  IC50: < 1 µM
[2]
  IC50: < 1 µM

## COc1ccc(-c2ccc3ccn(CC(=O)NCCN(C)C4CCCCC4)c3c2)cc1 [No 26]
[1]
  IC50: 1 to 10 µM
[2]
  IC50: < 1 µM

## CN(CCNC(=O)Cn1ccc2ccc(-c3ccc(F)cc3)cc21)C1CCCCC1 [No 23]
[1]
  IC50: < 1 µM
[2]
  IC50: < 1 µM

## CCCCc1ccc(-c2ccc3ccn(CC(=O)NCCN(C)C4CCCCC4)c3c2)cc1 [No 31]
[1]
  IC50: 1 to 10 µM
[2]
  IC50: < 1 µM

## Cc1cc(C)cc(-c2ccc3ccn(CC(=O)NCCN(C)C4CCCCC4)c3c2)c1 [No 32]
[1]
  IC50: 1 to 10 µM
[2]
  IC50: < 1 µM

## Cc1cc(-c2ccc3ccn(CC(=O)NCCN(C)C4CCCCC4)c3c2)ccc1F [No 33]
[1]
  IC50: < 1 µM
[2]
  IC50: < 1 µM

## CN(CCNC(=O)Cn1ccc2ccc(-c3ccc4c(ccn4C)c3)cc21)C1CCCCC1 [No 35]
[1]
  IC50: 1 to 10 µM
[2]
  IC50: < 1 µM

## CN(CCNC(=O)Cn1ccc2ccc(-c3cccc(C#N)c3)cc21)C1CCCCC1 [No 28]
[1]
  IC50: 1 to 10 µM
[2]
  IC50: 1 to 10 µM

## Cc1ccc(-c2ccc3ccn(CC(=O)NCCN(C)C4CCCCC4)c3c2)cc1 [No 24]
[1]
  IC50: 1 to 10 µM
[2]
  IC50: < 1 µM
